From the NIST ThermoML archive (doi:10.1016/j.jct.2016.03.030)
± gives the expanded uncertainty stated by the source.

Test: xn = mol fraction of the nth substance listed
Conditions: 100 kPa, Liquid; for viscosity: Falling or rolling sphere viscometry; for mass density: Vibrating tube method

CCC[N+]1(C)CCOCC1.[Br-] [4-methyl-4-propylmorpholinium bromide] + O
Conditions	mass density [kg/m3]	viscosity [mPa·s]
298.15 K, x1 = 0.0336	1084.6 ± 1.1	1.651 ± 0.17
298.15 K, x1 = 0.0618	1135.4 ± 1.1	2.638 ± 0.27
298.15 K, x1 = 0.0875	1170.4 ± 1	4.066 ± 0.41
298.15 K, x1 = 0.1298	1213 ± 1	8.208 ± 0.82
298.15 K, x1 = 0.1709	1242.8 ± 1.1	15.89 ± 1.6
298.15 K, x1 = 0.2036	1260.9 ± 1.1	26.67 ± 2.7
298.15 K, x1 = 0.254	1282.4 ± 1.2	62.45 ± 6.3
298.15 K, x1 = 0.2742	1289.4 ± 1.3	90.09 ± 9.2
298.15 K, x1 = 0.3025	1298.2 ± 1.4	154 ± 16
303.15 K, x1 = 0.0336	1082.5 ± 1.1	1.45 ± 0.14
303.15 K, x1 = 0.0618	1132.9 ± 1.1	2.291 ± 0.23
303.15 K, x1 = 0.0875	1167.6 ± 1	3.483 ± 0.35
303.15 K, x1 = 0.1298	1209.9 ± 1	6.823 ± 0.68
303.15 K, x1 = 0.1709	1239.6 ± 1.1	12.9 ± 1.3
303.15 K, x1 = 0.2036	1257.7 ± 1.1	20.98 ± 2.1
303.15 K, x1 = 0.254	1279.2 ± 1.2	46.52 ± 4.7
303.15 K, x1 = 0.2742	1286.1 ± 1.3	66.14 ± 6.7
303.15 K, x1 = 0.3025	1294.9 ± 1.3	108.8 ± 11
308.15 K, x1 = 0.0336	1080.2 ± 1.1	1.281 ± 0.13
308.15 K, x1 = 0.0618	1130.2 ± 1.1	2.002 ± 0.2
308.15 K, x1 = 0.0875	1164.7 ± 1	3 ± 0.3
308.15 K, x1 = 0.1298	1206.8 ± 1	5.723 ± 0.57
308.15 K, x1 = 0.1709	1236.4 ± 1.1	10.62 ± 1.1
308.15 K, x1 = 0.2036	1254.4 ± 1.1	16.76 ± 1.7
308.15 K, x1 = 0.254	1275.9 ± 1.2	35.35 ± 3.6
308.15 K, x1 = 0.2742	1282.8 ± 1.3	49.51 ± 5
308.15 K, x1 = 0.3025	1291.6 ± 1.3	79.28 ± 8
313.15 K, x1 = 0.0336	1077.8 ± 1.1	1.14 ± 0.11
313.15 K, x1 = 0.0618	1127.5 ± 1.1	1.761 ± 0.18
313.15 K, x1 = 0.0875	1161.7 ± 1	2.61 ± 0.26
313.15 K, x1 = 0.1298	1203.6 ± 1	4.854 ± 0.49
313.15 K, x1 = 0.1709	1233.1 ± 1.1	8.847 ± 0.89
313.15 K, x1 = 0.2036	1251.1 ± 1.1	13.62 ± 1.4
313.15 K, x1 = 0.254	1272.6 ± 1.2	27.4 ± 2.8
313.15 K, x1 = 0.2742	1279.5 ± 1.3	38.4 ± 3.9
313.15 K, x1 = 0.3025	1288.3 ± 1.3	59.26 ± 6
318.15 K, x1 = 0.0336	1075.3 ± 1.1	1.02 ± 0.1
318.15 K, x1 = 0.0618	1124.7 ± 1.1	1.559 ± 0.16
318.15 K, x1 = 0.0875	1158.7 ± 1	2.287 ± 0.23
318.15 K, x1 = 0.1298	1200.4 ± 1	4.155 ± 0.42
318.15 K, x1 = 0.1709	1229.9 ± 1.1	7.459 ± 0.75
318.15 K, x1 = 0.2036	1247.8 ± 1.1	11.23 ± 1.1
318.15 K, x1 = 0.254	1269.2 ± 1.2	21.7 ± 2.2
318.15 K, x1 = 0.2742	1276.2 ± 1.3	30.07 ± 3
318.15 K, x1 = 0.3025	1285.1 ± 1.3	45.23 ± 4.5
323.15 K, x1 = 0.0336	1072.3 ± 1.1	0.909 ± 0.091
323.15 K, x1 = 0.0618	1121.8 ± 1.1	1.372 ± 0.14
323.15 K, x1 = 0.0875	1155.7 ± 1	1.988 ± 0.2
323.15 K, x1 = 0.1298	1197.2 ± 1	3.541 ± 0.35
323.15 K, x1 = 0.1709	1226.6 ± 1.1	6.268 ± 0.63
323.15 K, x1 = 0.2036	1244.5 ± 1.1	9.267 ± 0.93
323.15 K, x1 = 0.254	1265.9 ± 1.2	17.23 ± 1.7
323.15 K, x1 = 0.2742	1272.9 ± 1.2	23.66 ± 2.4
323.15 K, x1 = 0.3025	1281.7 ± 1.3	34.94 ± 3.5
328.15 K, x1 = 0.0336	1069.9 ± 1.1	0.812 ± 0.081
328.15 K, x1 = 0.0618	1118.8 ± 1.1	1.215 ± 0.12
328.15 K, x1 = 0.0875	1152.5 ± 1	1.742 ± 0.17
328.15 K, x1 = 0.1298	1193.9 ± 1	3.047 ± 0.31
328.15 K, x1 = 0.1709	1223.2 ± 1.1	5.322 ± 0.53
328.15 K, x1 = 0.2036	1241.1 ± 1.1	7.756 ± 0.78
328.15 K, x1 = 0.254	1262.6 ± 1.2	13.96 ± 1.4
328.15 K, x1 = 0.2742	1269.5 ± 1.2	19.1 ± 1.9
328.15 K, x1 = 0.3025	1278.4 ± 1.3	27.52 ± 2.8
333.15 K, x1 = 0.0336	1066.3 ± 1.1	0.736 ± 0.074
333.15 K, x1 = 0.0618	1115.5 ± 1.1	1.088 ± 0.11
333.15 K, x1 = 0.0875	1149.1 ± 1	1.547 ± 0.15
333.15 K, x1 = 0.1298	1190.6 ± 1	2.654 ± 0.27
333.15 K, x1 = 0.1709	1219.9 ± 1.1	4.582 ± 0.46
333.15 K, x1 = 0.2036	1237.8 ± 1.1	6.587 ± 0.66
333.15 K, x1 = 0.254	1259.2 ± 1.2	11.53 ± 1.2
333.15 K, x1 = 0.2742	1266.2 ± 1.2	15.71 ± 1.6
333.15 K, x1 = 0.3025	1275.1 ± 1.3	22.11 ± 2.2
338.15 K, x1 = 0.0336	1064.5 ± 1.1	0.668 ± 0.067
338.15 K, x1 = 0.0618	1113.1 ± 1.1	0.979 ± 0.098
338.15 K, x1 = 0.0875	1145.3 ± 1	1.378 ± 0.14
338.15 K, x1 = 0.1298	1187.3 ± 1	2.426 ± 0.24
338.15 K, x1 = 0.1709	1216.5 ± 1.1	4.142 ± 0.42
338.15 K, x1 = 0.2036	1234.4 ± 1.1	5.636 ± 0.57
338.15 K, x1 = 0.254	1255.9 ± 1.2	9.633 ± 0.97
338.15 K, x1 = 0.2742	1262.9 ± 1.2	12.97 ± 1.3
338.15 K, x1 = 0.3025	1271.7 ± 1.3	18.05 ± 1.8
343.15 K, x1 = 0.0336	1061.9 ± 1.1	0.63 ± 0.063
343.15 K, x1 = 0.0618	1110.2 ± 1.1	0.925 ± 0.093
343.15 K, x1 = 0.0875	1142 ± 1	1.303 ± 0.13
343.15 K, x1 = 0.1298	1183.9 ± 1	2.269 ± 0.23
343.15 K, x1 = 0.1709	1213.1 ± 1.1	4.062 ± 0.81
343.15 K, x1 = 0.2036	1231 ± 1.1	4.879 ± 0.49
343.15 K, x1 = 0.254	1252.5 ± 1.2	8.213 ± 0.82
343.15 K, x1 = 0.2742	1259.5 ± 1.2	10.96 ± 1.1
343.15 K, x1 = 0.3025	1268.4 ± 1.3	14.99 ± 1.5
